# Data from patent US11666600B2, “Methods for culturing and/or differentiating hematopoietic stem cells into progenitors and uses thereof” (HEMA-QUEBEC, priority 2015, dated 2023).
# Columns and labels:
# [1] = system: CD34+/CD45RA− mobilized peripheral blood cells; conditions: Fares et al., 2014; cited from earlier work
# [2] = system: aryl hydrocarbon receptor (AhR) pathway; conditions: Fares et al., 2014; cited from earlier work
# [3] = system: cord blood CD34+ cells; test: Expansion of CD34+/CD41+ megakaryocytic progenitors from cord blood CD34+ cells; assay type: cell-based, human; conditions: 39° C. + PIC2 500 nM; 14 days; SFEM + BS1; FIG. 7
# Method: Human cord blood (CB) was collected after obtaining written informed consent from donors, following our institutional Research Ethics Committee guidelines. Mononuclear cells (MNCs) were first separated over a Ficoll-Hypaque™ density gradient (GE Healthcare), then cryopreserved at −180° C. in Cryostor CS10™ medium ([…] Technologies). Thawed MNCs from six to eight CB were pooled before CD34 isolation. CB CD34+ cells were enriched by positive selection using the EasySep™ CD34 enrichment kit, according to the manufacturer's instructions ([…] Technologies). […]
# Cellular counts and viability were determined by adding Solution 18 (Acridine Orange and DAPI solution, ChemomMetec) and using NucleoCounter™ NC-250 for detection (ChemomMetec).
# For cells expanded in conditions favoring differentiation towards the MK lineage, surface markers were detected using the following antibodies: CD34-FITC, CD41a-APC and CD42b-PE. […] All samples were analyzed on an Accuri™ C6 flow cytometer (BD Biosciences), and raw data were analyzed with FCS Express 5 Flow Research Edition software from at least 15 000 viable cell events acquired for each sample. […]
# Cellular counts and viability were determined as described in Example 6.5. […]
compound,measurement,setting,value
"COC(=O)c1ccc2c(c1)[nH]c1ncnc(NCCCN3CCCCC3)c12 [PIC2, Methyl 4-((3-(piperidin-1-yl)propyl)amino)-9H-pyrimido[4,5-b]indole-7-carboxylate]",expansion of CD34+/CD45RA− mobilized peripheral blood cells (enriched in LT-HSCs),[1],stimulate expansion
same,suppression of the aryl hydrocarbon receptor (AhR) pathway,[2],without acting as suppressors
same,combined use of mild hyperthermia and PIC2 on expansion of CB CD34+/CD41+ cells,[3],synergistic effect
